From ChEMBL document CHEMBL3994658, “Synthesis, molecular docking and α-glucosidase inhibition of 2-((5,6-diphenyl-1,2,4-triazin-3-yl)thio)-N-arylacetamides” (Bioorg Med Chem Lett, 2017)

Assay: Inhibition of Saccharomyces cerevisiae alpha-glucosidase using p-nitrophenyl-alpha-D-glucopyranoside as substrate preincubated for 15 mins followed by substrate addition measured after 30 mins by spectrophotometric method

Row | Compound | IC50
1 | O=C(CSc1nnc(-c2ccccc2)c(-c2ccccc2)n1)Nc1ccc(Cl)cc1 | 14.1 µM
2 | O=C(CSc1nnc(-c2ccccc2)c(-c2ccccc2)n1)Nc1ccc(C(F)(F)F)cc1 | 34.9 µM
3 | CCOc1ccc(NC(=O)CSc2nnc(-c3ccccc3)c(-c3ccccc3)n2)cc1 | 26.3 µM
4 | O=C(CSc1nnc(-c2ccccc2)c(-c2ccccc2)n1)Nc1ccc([N+](=O)[O-])cc1 | 12.5 µM
5 | O=C(CSc1nnc(-c2ccccc2)c(-c2ccccc2)n1)Nc1ccccc1 | 71.1 µM
6 | Cc1ccc(NC(=O)CSc2nnc(-c3ccccc3)c(-c3ccccc3)n2)cc1 | 52 µM
7 | CCOc1ccccc1NC(=O)CSc1nnc(-c2ccccc2)c(-c2ccccc2)n1 | 16 µM
8 | O=C(CSc1nnc(-c2ccccc2)c(-c2ccccc2)n1)Nc1ccc(F)cc1 | 50.6 µM
9 | O=C(CSc1nnc(-c2ccccc2)c(-c2ccccc2)n1)Nc1ccc(Cl)cc1Cl | 36.8 µM
10 | Cc1cccc(NC(=O)CSc2nnc(-c3ccccc3)c(-c3ccccc3)n2)c1 | 42.5 µM
11 | Cc1ccc(NC(=O)CSc2nnc(-c3ccccc3)c(-c3ccccc3)n2)c([N+](=O)[O-])c1 | 45.6 µM
12 | Cc1ccccc1NC(=O)CSc1nnc(-c2ccccc2)c(-c2ccccc2)n1 | 72.7 µM
13 | COc1ccc(NC(=O)CSc2nnc(-c3ccccc3)c(-c3ccccc3)n2)cc1 | 49.4 µM
14 | COc1ccc(NC(=O)CSc2nnc(-c3ccccc3)c(-c3ccccc3)n2)c([N+](=O)[O-])c1 | 47 µM
15 | O=C(CSc1nnc(-c2ccccc2)c(-c2ccccc2)n1)Nc1cc(Cl)ccc1Cl | 28 µM
16 | O=C(CSc1nnc(-c2ccccc2)c(-c2ccccc2)n1)Nc1ccc(Oc2ccccc2)cc1 | 25.2 µM
17 | Cc1ccc(NC(=O)CSc2nnc(-c3ccccc3)c(-c3ccccc3)n2)c(C)c1 | 67.2 µM
